# In patent US20210246115A1 (Bioimics AB, priority 2017, published 2021):
# Where a name gives a salt, the structure may show the parent alone.
# How the values were obtained:
# [1] = tested on: Staphylococcus aureus (ATCC25923); test: MIC, broth microdilution (CLSI), Staphylococcus aureus ATCC25923; conditions: Staphylococcus aureus, ATCC25923, read-out: S. aureus ATCC 25923 MIC
# Protocol: (§1) Initial minimal inhibitory concentration (MIC) tests were made on two bacterial strains: • Escherichia coli (ATCC25922) • Staphylococcus aureus (ATCC25923).
# (§2) MIC values were determined using the standard broth microdilution procedure based on the guidelines by the Clinical and Laboratory Standards Institute (CLSI). Briefly, the compounds were dissolved in DMSO to 10 mM. They were diluted in cation-adjusted Mueller-Hinton broth (CAMHB) to four times the highest concentration tested. A serial two-fold dilution in CAMHB was done in microdilution plates. The inoculum of bacterial strain to be tested was prepared by making a suspension of colonies from an 18 to 24 hours old plate in CAMHB. The inoculum was diluted so that, after inoculation, each well contained approximately 5×10^5 CFU/mL. To a volume of 50 μl compound in CA 3 an equal volume of inoculum was added. The tray was sealed in a plastic bag and incubated at 35° C. for 16 to 20 hours. To aid in the detection of growth the dye resazurin was added to a final concentration 0.001% and incubated at room temperature for 1 h. Reduction of resazurin, and therefore bacterial growth, was seen as a change from blue to pink.
# [2] = tested on: Escherichia coli (ATCC25922); test: MIC, broth microdilution (CLSI), Escherichia coli; conditions: Escherichia coli, ATCC25922, read-out: E. coli ATCC 25922 MIC, Table XIII
# Protocol: as §1, §2
# [3] = tested on: E. coli RNase P RNA, M1 RNA; test: Inhibition of bacterial RNase P activity, IC50 determination (cleavage of pATSerUG by M1 RNA); format: biochemical; conditions: NI: No inhibition
SMILES,MIC [1] [µg/mL],MIC [2] [µg/mL],IC50 [3] [µM],IC50 ([3]; hydrochloride salt) [µM]
"Cc1cccc(C(CC(=O)N[C@H]2CC[C@H](N(C)C)CC2)c2cn(CC3CCCCC3)c3ccccc23)c1.Cl (stereo partly drawn) [Compound 146, 3-(1-(cyclohexylmethyl)-1H-indol-3-yl)-N-((1R,4R)-4-(dimethylamino)cyclohexyl)-3-(m-tolyl)propanamide hydrochloride salt]",8,256,52,–
"N[C@H]1CC[C@H](NC(=O)C2CCN(Cc3cn(CC4CCCCC4)c4ccc(Br)cc34)CC2)CC1 [Compound 272, N-((1R,4R)-4-aminocyclohexyl)-1-((5-bromo-1-(cyclohexylmethyl)-1H-indol-3-yl)methyl)piperidine-4-carboxamide]",34,68,121,–
"COc1ccccc1-c1ccc2c(c1)c(CCC(=O)N[C@H]1CC[C@H](N)CC1)cn2CC1CCCCC1.Cl [Compound 230, N-((1R,4R)-4-aminocyclohexyl)-3-(1-(cyclohexylmethyl)-5-(2-methoxyphenyl)-1H-indol-3-yl)propanamide hydrochloride salt]",8,67,11,–
"Cc1cccc(-c2ccc3c(c2)c(CCC(=O)NC2CCC(N)CC2)cn3CC2CCCCC2)c1.Cl (stereo not drawn) [Compound 144, N-((1s,4s)-4-aminocyclohexyl)-3-(1-(cyclohexylmethyl)-5-(m-tolyl)-1H-indol-3-yl)propanamide hydrochloride salt]",4,64,7.5,–
"Cc1cccc(C(CC(=O)NC2CCC(CN)CC2)c2cn(CC3CCCCC3)c3ccccc23)c1.Cl (stereo not drawn) [Compound 182, N-((1r,4r)-4-(aminomethyl)cyclohexyl)-3-(1-(cyclohexylmethyl)-1H-indol-3-yl)-3-(m-tolyl)propanamide hydrochloride salt]",17,> 512,17,–
"N[C@H]1CC[C@H](NC(=O)CC(c2cn(CC3CCCCC3)c3ccccc23)C2CCNCC2)CC1 (stereo partly drawn) [Compound 107, N-((1r,4r)-4-aminocyclohexyl)-3-(1-(cyclohexylmethyl)-1H-indol-3-yl)-3-(piperidin-4-yl)propanamide hydrochloride salt]",512,> 512,1330,–
"Cl.N[C@H]1CC[C@H](NC(=O)CC(c2cccc(C(F)(F)F)c2)c2cn(CC3CCCCC3)c3ccccc23)CC1 (stereo partly drawn) [Compound 129, N-((1R,4R)-4-aminocyclohexyl)-3-(1-(cyclohexylmethyl)-1H-indol-3-yl)-3-(3-(trifluoromethyl)phenyl) propanamide hydrochloride salt]",4,> 512,13,–
"Cc1cccc(C(CC(=O)N[C@H]2CC[C@H](N)CC2)c2cn(Cc3ccccc3)c3ncccc23)c1.Cl (stereo partly drawn) [Compound 71, N-((1R,4R)-4-aminocyclohexyl)-3-(1-benzyl-1H-pyrrolo[2,3-b]pyridin-3-yl)-3-(m-tolyl)propanamide hydrochloride salt]",258,> 512,269,–
"Cc1cccc(C(CC(=O)NCC2CCNCC2)c2cn(Cc3ccccc3)c3ncccc23)c1.Cl (stereo not drawn) [Compound 69, 3-(1-benzyl-1H-pyrrolo[2,3-b]pyridin-3-yl)-N-(piperidin-4-ylmethyl)-3-(m-tolyl)propanamide hydrochloride salt]",> 512,> 512,825,–
"Cc1cccc(C(CC(=O)NC2CCC(N)CC2)c2cn(CC3CCCCC3)c3ccc(-c4ccnn4C)cc23)c1.Cl (stereo not drawn) [Compound 183, N-(4-aminocyclohexyl)-3-(1-(cyclohexylmethyl)-5-(1-methyl-1H-pyrazol-5-yl)-1H-indol-3-yl)-3-(m-tolyl)propanamide hydrochloride salt]",9,151,17,–
"Cl.NC1CCC(NC(=O)CCc2cn(CC3CCCCC3)c3ccc(-c4ccccc4Cl)cc23)CC1 [Compound 239, N-((1S,4S)-4-aminocyclohexyl)-3-(5-(2-chlorophenyl)-1-(cyclohexylmethyl)-1H-indol-3-yl)propanamide hydrochloride salt]",4,271,2.9,–
"Cc1cccc(C(CC(=O)NCCC2CCNCC2)c2cn(CC3CCCCC3)c3ccc(F)cc23)c1.Cl (stereo not drawn) [Compound 119, 3-(1-(cyclohexylmethyl)-5-fluoro-1H-indol-3-yl)-N-(2-(piperidin-4-yl)ethyl)-3-(m-tolyl)propanamide hydrochloride salt]",8,32,19,–
"COc1cccc(C(CC(=O)NCCC2CCNCC2)c2cn(Cc3ccccc3)c3ccccc23)c1.Cl (stereo not drawn) [Compound 68, 3-(1-benzyl-1H-indol-3-yl)-3-(3-methoxyphenyl)-N-(2-(piperidin-4-yl)ethyl)propanamide hydrochloride salt]",68,> 512,201,–
"Cc1cccc(C(CC(=O)NCC2CCC(N)CC2)c2cn(CC3CCCCC3)c3ccccc23)c1.Cl [Compound 180, N-(((1R,4R)-4-aminocyclohexyl)methyl)-3-(1-(cyclohexylmethyl)-1H-indol-3-yl)-3-(m-tolyl)propanamide hydrochloride salt]",17,67,18,–
"Cl.c1ccc2c(CCNCC3CCCC3)c[nH]c2c1 [Compound 20, N-(cyclopentylmethyl)-2-(1H-indol-3-yl)ethan-1-amine hydrochloride salt]",> 512,> 512,4140,–
"Cc1cccc(C(CC(=O)NC2CCC(N)CC2)c2cn(CC3CCCCC3)c3c(Br)cccc23)c1.Cl [Compound 174, N-((1S,4S)-4-aminocyclohexyl)-3-(7-bromo-1-(cyclohexylmethyl)-1H-indol-3-yl)-3-(m-tolyl)propanamide hydrochloride salt]",150,> 512,32,–
"Cl.N[C@H]1CC[C@H](NC(=O)CC(c2cccnc2)c2cn(Cc3ccccc3)c3ccccc23)CC1 (stereo partly drawn) [Compound 99, N-((1R,4R)-4-aminocyclohexyl)-3-(1-benzyl-1H-indol-3-yl)-3-(pyridin-3-yl)propanamide hydrochloride salt]",256,> 512,18,–
"N[C@H]1CC[C@H](NCCc2cn(CC3CCCCC3)c3ccc(Br)cc23)CC1 [Compound 197, (1R,4R)-N1-(2-(5-bromo-1-(cyclohexylmethyl)-1H-indol-3-yl)ethyl) cyclohexane-1,4-diamine hydrochloride salt]",4,8,31,–
"Cc1cccc(C(CC(=O)NCCN(C)C)c2cn(CC3CCCCC3)c3ccccc23)c1.Cl (stereo not drawn) [Compound 103, 3-(1-(cyclohexylmethyl)-1H-indol-3-yl)-N-(2-(dimethylamino)ethyl)-3-(m-tolyl)propanamide hydrochloride salt]",16,128,200,–
"Cl.N[C@H]1CC[C@H](NC(=O)CCc2cn(CC3CCCCC3)c3ccc(Br)cc23)CC1 [Compound 156, N-((1R,4R)-4-aminocyclohexyl)-3-(5-bromo-1-(cyclohexylmethyl)-1H-indol-3-yl)propanamide hydrochloride salt]",16,32,16,–
"Cl.NC1CCC(NC(=O)CC(c2ccnc(O)c2)c2cn(CC3CCCCC3)c3ccccc23)CC1 [Compound 157, N-((1S,4S)-4-aminocyclohexyl)-3-(1-(cyclohexylmethyl)-1H-indol-3-yl)-3-(2-hydroxypyridin-4-yl)propanamide hydrochloride salt]",131,262,3.4,–
"FC1(F)CCC(Cn2cc(CCCNC3CCNCC3)c3cc(Br)ccc32)CC1 [Compound 295, N-(3-(5-bromo-1-((4,4-difluorocyclohexyl)methyl)-1H-indol-3-yl)propyl)piperidin-4-amine hydrochloride salt]",9,17,50,–
"Cc1cccc(C(CC(=O)NC2CCC(N)CC2)c2cn(CC3CCCCC3)c3ccc(C4=CCNCC4)cc23)c1 [Compound 228, N-((1S,4S)-4-aminocyclohexyl)-3-(1-(cyclohexylmethyl)-5-(1,2,3,6-tetrahydropyridin-4-yl)-1H-indol-3-yl)-3-(m-tolyl)propanamide hydrochloride salt]",10,40,57,–
"Cc1cccc(C(CC(=O)NCC2CCC(N)CC2)c2cn(CC3CCCCC3)c3ccc(Br)cc23)c1.Cl [Compound 214, N-(((1R,4R)-4-aminocyclohexyl)methyl)-3-(5-bromo-1-(cyclohexylmethyl)-1H-indol-3-yl)-3-(m-tolyl)propanamide hydrochloride salt]",10,> 512,13,–
"Cl.N[C@H]1CC[C@H](NC(=O)CCc2cn(Cc3ccccc3)c3ccccc23)CC1 [Compound 100, N-((1R,4R)-4-aminocyclohexyl)-3-(1-benzyl-1H-indol-3-yl)propanamide hydrochloride salt]",256,> 512,486,–
"Cc1cccc(C(CC(=O)NC2CCC(N)CC2)c2cn(CC3CCCCC3)c3cc(Br)ccc23)c1.Cl [Compound 175, N-((1S,4S)-4-aminocyclohexyl)-3-(6-bromo-1-(cyclohexylmethyl)-1H-indol-3-yl)-3-(m-tolyl)propanamide hydrochloride salt]",2,> 512,–,59
"Cc1cccc(C(CC(=O)NC2CCNCC2)c2cn(Cc3ccccc3)c3ncccc23)c1.Cl (stereo not drawn) [Compound 70, 3-(1-benzyl-1H-pyrrolo[2,3-b]pyridin-3-yl)-N-(piperidin-4-yl)-3-(m-tolyl)propanamide hydrochloride salt]",250,> 512,1090,–
